In US11566007B2, “Ras inhibitors” (Revolution Medicines, Inc., priority 2019, dated 2023):

How the values were obtained:
NRAS G12C = NRAS G12C (Homo sapiens (Human), UniProt P01111+P62937, G12C); test: Ras-Raf (BRAF RBD) disruption / FRET / MOA assay, NRAS G12C; type: biochemical; conditions: read-out: IC50* NRAS G12C FRET data
How it was run: (§1)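 Compounds, top final concentration 30 μM in 10-point 3-fold series, incubated 3 hours at 25° C with nucleotide-loaded Ras, cyclophilin A and BRAF RBD.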

[1] = system: NCI-H358 cells (K-Ras G12C); test: Potency assay: pERK in NCI-H358 cells; type: cell-based, human; conditions: Homo sapiens, NCI-H358; H358 KRAS G12C; read-out: pERK EC50
How it was run: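 Inhibition of cellular pERK after a 4 h treatment, detected by AlphaLISA or In-Cell Western. IC50 from a four-parameter concentration-response fit.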

KRAS G12D = KRAS G12D (Homo sapiens (Human), UniProt P01116+P62937, G12D); test: Ras-Raf (BRAF RBD) disruption / FRET / MOA assay, KRAS G12D; type: biochemical; conditions: Ras-Raf disruption/FRET/MOA assay; class symbols; read-out: KRAS G12D FRET data IC50
Sequence of KRAS G12D (P01116-2 other isoform, or with tags, fused parts or gaps G12D): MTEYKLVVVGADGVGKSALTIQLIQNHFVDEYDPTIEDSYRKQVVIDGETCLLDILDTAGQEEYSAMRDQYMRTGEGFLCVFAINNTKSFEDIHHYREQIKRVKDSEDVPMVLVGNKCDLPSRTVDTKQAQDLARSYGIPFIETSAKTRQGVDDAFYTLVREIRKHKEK
Sequence of KRAS G12D (P62937 whole entry): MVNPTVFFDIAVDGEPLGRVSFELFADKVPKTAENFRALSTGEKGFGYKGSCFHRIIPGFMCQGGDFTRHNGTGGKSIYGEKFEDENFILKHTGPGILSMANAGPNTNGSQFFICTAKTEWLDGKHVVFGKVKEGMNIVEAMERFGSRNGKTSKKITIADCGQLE
How it was run: as §1

KRAS WT = KRAS WT (Homo sapiens (Human), UniProt P01116+P62937); test: Ras-Raf (BRAF RBD) disruption / FRET / MOA assay, KRAS WT; type: biochemical; conditions: read-out: IC50* KRAS WT FRET data
Sequence of KRAS WT (P01116-2 other isoform, or with tags, fused parts or gaps): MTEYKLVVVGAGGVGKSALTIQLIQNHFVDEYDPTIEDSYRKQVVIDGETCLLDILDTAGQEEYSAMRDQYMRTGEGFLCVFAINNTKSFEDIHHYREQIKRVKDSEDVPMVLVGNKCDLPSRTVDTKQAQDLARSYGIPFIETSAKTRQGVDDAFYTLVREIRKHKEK
Sequence of KRAS WT (P62937 whole entry): as the sequence (P62937 whole entry) above
How it was run: as §1

KRAS G12V = KRAS G12V (Homo sapiens (Human), UniProt P01116+P62937, G12V); test: Ras-Raf (BRAF RBD) disruption / FRET / MOA assay, KRAS G12V; type: biochemical; conditions: read-out: IC50* KRAS G12V FRET data
Sequence of KRAS G12V (P01116-2 other isoform, or with tags, fused parts or gaps G12V): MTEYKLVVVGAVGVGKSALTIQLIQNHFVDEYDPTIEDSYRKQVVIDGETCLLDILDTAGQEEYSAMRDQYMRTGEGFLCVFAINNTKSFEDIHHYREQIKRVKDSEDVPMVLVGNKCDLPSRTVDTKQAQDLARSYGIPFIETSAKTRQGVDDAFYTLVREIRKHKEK
Sequence of KRAS G12V (P62937 whole entry): as the sequence (P62937 whole entry) above
How it was run: as §1

K-Ras G13C = K-Ras G13C (Homo sapiens (Human), UniProt P01116+P62937, G13C); test: Ras-Raf (BRAF RBD) disruption / FRET / MOA assay, KRAS G13C; type: biochemical; conditions: KRAS G13C; Ras-Raf disruption/FRET/MOA assay; read-out: IC50* KRAS G13C FRET data
Sequence of K-Ras G13C (P01116-2 other isoform, or with tags, fused parts or gaps G13C): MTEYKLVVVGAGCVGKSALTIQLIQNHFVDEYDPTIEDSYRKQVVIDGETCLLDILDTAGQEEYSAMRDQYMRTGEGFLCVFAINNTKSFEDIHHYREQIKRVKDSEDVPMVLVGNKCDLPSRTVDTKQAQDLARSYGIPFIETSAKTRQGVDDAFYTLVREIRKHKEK
Sequence of K-Ras G13C (P62937 whole entry): as the sequence (P62937 whole entry) above
How it was run: as §1

NCI-H358 (K-Ras G12C) = test: CellTiter-Glo cell viability assay, NCI-H358; type: cell-based, human; conditions: Homo sapiens, NCI-H358, 120 h, NCI-H358, 5-day treatment; class symbols; read-out: Additional H358 Cell Viability assay data (K-Ras G12C, IC50)
How it was run: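 Compounds were dispensed directly onto K-Ras mutant cells and incubated until day 5, then plates were equilibrated to room temperature for about 30 minutes before CellTiter-Glo luminescence. Signals were normalized as (sample/average DMSO)*100 and fitted by four-parameter logistic fit.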

K-Ras G12C = K-Ras G12C (Homo sapiens (Human), UniProt P01116+P62937, G12C); test: Ras-Raf (BRAF RBD) disruption / FRET / MOA assay, KRAS G12C; type: biochemical; conditions: KRAS G12C; Ras-Raf disruption/FRET/MOA assay; read-out: IC50* KRAS G12C FRET data
Sequence of K-Ras G12C (P01116-2 other isoform, or with tags, fused parts or gaps G12C): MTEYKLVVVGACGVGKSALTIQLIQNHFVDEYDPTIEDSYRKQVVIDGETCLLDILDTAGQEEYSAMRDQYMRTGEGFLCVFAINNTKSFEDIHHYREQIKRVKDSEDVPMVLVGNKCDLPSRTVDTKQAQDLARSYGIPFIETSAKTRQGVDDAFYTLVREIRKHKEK
Sequence of K-Ras G12C (P62937 whole entry): as the sequence (P62937 whole entry) above
How it was run: as §1

KRAS G12S = KRAS G12S (Homo sapiens (Human), UniProt P01116+P62937, G12S); test: Ras-Raf (BRAF RBD) disruption / FRET / MOA assay, KRAS G12S; type: biochemical; conditions: Ras-Raf disruption/FRET/MOA assay; class symbols; read-out: KRAS G12S FRET data IC50
Sequence of KRAS G12S (P01116-2 other isoform, or with tags, fused parts or gaps G12S): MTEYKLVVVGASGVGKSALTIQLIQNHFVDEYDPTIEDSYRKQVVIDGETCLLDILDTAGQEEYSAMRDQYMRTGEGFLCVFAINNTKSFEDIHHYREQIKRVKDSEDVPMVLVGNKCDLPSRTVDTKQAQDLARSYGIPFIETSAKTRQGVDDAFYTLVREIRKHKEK
Sequence of KRAS G12S (P62937 whole entry): as the sequence (P62937 whole entry) above
How it was run: as §1

KRAS G13D = KRAS G13D (Homo sapiens (Human), UniProt P01116+P62937, G13D); test: Ras-Raf (BRAF RBD) disruption / FRET / MOA assay, KRAS G13D; type: biochemical; conditions: read-out: IC50* KRAS G13D FRET data
Sequence of KRAS G13D (P01116-2 other isoform, or with tags, fused parts or gaps G13D): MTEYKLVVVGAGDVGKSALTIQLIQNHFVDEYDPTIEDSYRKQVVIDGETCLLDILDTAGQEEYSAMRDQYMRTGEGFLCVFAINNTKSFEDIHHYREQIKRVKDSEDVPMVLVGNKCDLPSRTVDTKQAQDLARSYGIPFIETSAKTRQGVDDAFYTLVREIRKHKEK
Sequence of KRAS G13D (P62937 whole entry): as the sequence (P62937 whole entry) above
How it was run: as §1

Sequence of NRAS G12C (P01111 whole entry G12C): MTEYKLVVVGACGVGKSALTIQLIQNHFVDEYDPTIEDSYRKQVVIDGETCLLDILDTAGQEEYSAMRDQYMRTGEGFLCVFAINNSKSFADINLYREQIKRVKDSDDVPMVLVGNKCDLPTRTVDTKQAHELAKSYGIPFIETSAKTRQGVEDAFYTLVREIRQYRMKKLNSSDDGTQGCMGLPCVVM
Sequence of NRAS G12C (P62937 whole entry): as the sequence (P62937 whole entry) above

Row | SMILES | IC50 (NRAS G12C) [nM] | EC50 [1] [µM] | IC50 (KRAS G12D) [nM] | IC50 (KRAS WT) [nM] | IC50 (KRAS G12V) [nM] | IC50 (K-Ras G13C) [nM] | IC50 (NCI-H358 (K-Ras G12C)) [nM] | IC50 (K-Ras G12C) [nM] | IC50 (KRAS G12S) [nM] | IC50 (KRAS G13D) [nM]
1 | C=CC(=O)NC[C@@H]1CCN1C(=O)N(C)[C@H](C(=O)N[C@H]1Cc2nc(cs2)-c2ccc3c(c2)c(c(-c2cccnc2[C@H](C)OC)n3CC)CC(C)(C)COC(=O)[C@@H]2CCCN(N2)C1=O)C(C)C (atropisomer, axis not shown) [Example A422] | 100 to 1000 | < 5 | 1000 to 10000 | 1000 to 10000 | 1000 to 10000 | 100 to 1000 | 10 to 100 | 100 to 1000 | 1000 to 10000 | 1000 to 10000
2 | CC#CC(=O)N1CC[C@@]2(CCN([C@H](C(=O)N[C@H]3Cc4cccc(c4)-c4ccc5c(c4)c(c(-c4cccnc4[C@H](C)OC)n5CC)CC(C)(C)COC(=O)[C@@H]4CCCN(N4)C3=O)C(C)C)C2=O)C1 (atropisomer, axis not shown) [Example A426] | 1000 to 10000 | < 5 | > 10000 | 1000 to 10000 | 1000 to 10000 | 1000 to 10000 | 10 to 100 | 100 to 1000 | 1000 to 10000 | > 10000
3 | C=CC(=O)N1C[C@H](C)N(C(=O)N(C)[C@H](C(=O)N[C@H]2Cc3nc(cs3)-c3ccc4c(c3)c(c(-c3cccnc3[C@H](C)OC)n4CC)CC(C)(C)COC(=O)[C@@H]3CCCN(N3)C2=O)C(C)C)C[C@H]1C (atropisomer, axis not shown) [Example A430] | 100 to 1000 | < 5 | 1000 to 10000 | 100 to 1000 | 1000 to 10000 | 100 to 1000 | 10 to 100 | 100 to 1000 | 100 to 1000 | 1000 to 10000
4 | C=CC(=O)N1CC2(C1)CN(C(=O)N(C)[C@H](C(=O)N[C@H]1Cc3nc(cs3)-c3ccc4c(c3)c(c(-c3cccnc3[C@H](C)OC)n4CC)CC(C)(C)COC(=O)[C@@H]3CCCN(N3)C1=O)C(C)C)CCO2 (atropisomer, axis not shown) [Example A431] | 100 to 1000 | < 5 | 1000 to 10000 | 100 to 1000 | 100 to 1000 | 100 to 1000 | 10 to 100 | 100 to 1000 | 100 to 1000 | 1000 to 10000
5 | C=CC(=O)N1CCN(C(=O)N(C)[C@H](C(=O)N[C@H]2Cc3nc(cs3)-c3ccc4c(c3)c(c(-c3cccnc3[C@H](C)OC)n4CC)CC(C)(C)COC(=O)[C@@H]3CCCN(N3)C2=O)C(C)C)C[C@H]1C (atropisomer, axis not shown) [Example A432] | 10 to 100 | < 5 | 100 to 1000 | 10 to 100 | 100 to 1000 | 10 to 100 | 10 to 100 | 10 to 100 | 100 to 1000 | 100 to 1000
6 | C=CC(=O)N1CCN(C(=O)N(C)[C@H](C(=O)N[C@H]2Cc3nc(cs3)-c3ccc4c(c3)c(c(-c3cccnc3[C@H](C)OC)n4CC)CC(C)(C)COC(=O)[C@@H]3CCCN(N3)C2=O)C(C)C)C[C@@H]1C (atropisomer, axis not shown) [Example A433] | 10 to 100 | < 5 | 100 to 1000 | 10 to 100 | 100 to 1000 | 10 to 100 | 10 to 100 | 10 to 100 | 10 to 100 | 100 to 1000
7 | C=CC(=O)N1CC(N(C)C(=O)N(C)[C@H](C(=O)N[C@H]2Cc3nc(cs3)-c3ccc4c(c3)c(c(-c3cccnc3[C@H](C)OC)n4CC)CC(C)(C)COC(=O)[C@@H]3CCCN(N3)C2=O)C(C)C)C1 (atropisomer, axis not shown) [Example A435] | < 10 | < 5 | 1000 to 10000 | 100 to 1000 | 100 to 1000 | 100 to 1000 | < 10 | 10 to 100 | 100 to 1000 | 1000 to 10000
8 | C=CC(=O)N1CCCN(C(=O)N(C)[C@H](C(=O)N[C@H]2Cc3nc(cs3)-c3ccc4c(c3)c(c(-c3cccnc3[C@H](C)OC)n4CC)CC(C)(C)COC(=O)[C@@H]3CCCN(N3)C2=O)C(C)C)CC1 (atropisomer, axis not shown) [Example A436] | 10 to 100 | < 5 | 100 to 1000 | 10 to 100 | 100 to 1000 | 100 to 1000 | 10 to 100 | 10 to 100 | 100 to 1000 | 100 to 1000
9 | C=CC(=O)NCCN(C)C(=O)N(C)[C@H](C(=O)N[C@H]1Cc2nc(cs2)-c2ccc3c(c2)c(c(-c2cccnc2[C@H](C)OC)n3CC)CC(C)(C)COC(=O)[C@@H]2CCCN(N2)C1=O)C(C)C (atropisomer, axis not shown) [Example A438] | 10 to 100 | < 5 | 1000 to 10000 | 100 to 1000 | 100 to 1000 | 10 to 100 | 10 to 100 | 10 to 100 | 100 to 1000 | 100 to 1000
10 | CCn1c(-c2cccnc2[C@H](C)OC)c2c3cc(ccc31)-c1nc(cs1)C[C@H](NC(=O)[C@H](C1CCCC1)N(C)C(=O)[C@H]1CCN(C(=O)C#CC(C)(C)N3CCC3)C1)C(=O)N1CCC[C@H](N1)C(=O)OCC(C)(C)C2 (atropisomer, axis not shown) [Example A439] | 10 to 100 | < 5 | > 10000 | 1000 to 10000 | 1000 to 10000 | 100 to 1000 | < 10 | 10 to 100 | 1000 to 10000 | 1000 to 10000
11 | CCn1c(-c2cccnc2[C@H](C)OC)c2c3cc(ccc31)-c1nc(cs1)C[C@H](NC(=O)[C@H](C(C)C)N(C)C(=O)[C@H]1CCN(C(=O)C#CC(C)(C)N3CCC3)C1)C(=O)N1CCC[C@H](N1)C(=O)OCC(C)(C)C2 (atropisomer, axis not shown) [Example A440] | 10 to 100 | < 5 | 1000 to 10000 | 1000 to 10000 | 1000 to 10000 | 100 to 1000 | < 10 | 10 to 100 | 1000 to 10000 | 1000 to 10000
12 | C=CC(=O)N1CC[C@H](C(=O)N(C)[C@H](C(=O)N[C@H]2Cc3cc(C(F)F)cc(n3)-c3ccc4c(c3)c(c(-c3cccnc3[C@H](C)OC)n4CC)CC(C)(C)COC(=O)[C@@H]3CCCN(N3)C2=O)C(C)C)C1 (atropisomer, axis not shown) [Example A441] | 1000 to 10000 | < 5 | > 10000 | > 10000 | > 10000 | 1000 to 10000 | 10 to 100 | 1000 to 10000 | > 10000 | > 10000
13 | C=CC(=O)N1CC[C@](C#N)(C(=O)N(C)[C@H](C(=O)N[C@H]2Cc3cccc(c3)-c3ccc4c(c3)c(c(-c3cccnc3[C@H](C)OC)n4CC)CC(C)(C)COC(=O)[C@@H]3CCCN(N3)C2=O)C(C)C)C1 (atropisomer, axis not shown) [Example A443] | 10 to 100 | < 5 | 1000 to 10000 | 1000 to 10000 | 100 to 1000 | 100 to 1000 | < 10 | 10 to 100 | 100 to 1000 | 1000 to 10000
14 | C=CC(=O)N1CC[C@@](C#N)(C(=O)N(C)[C@H](C(=O)N[C@H]2Cc3cccc(c3)-c3ccc4c(c3)c(c(-c3cccnc3[C@H](C)OC)n4CC)CC(C)(C)COC(=O)[C@@H]3CCCN(N3)C2=O)C(C)C)C1 (atropisomer, axis not shown) [Example A444] | 10 to 100 | < 5 | 1000 to 10000 | 1000 to 10000 | 100 to 1000 | 100 to 1000 | < 10 | 10 to 100 | 1000 to 10000 | 1000 to 10000
15 | C=CC(=O)N1CC(OC(=O)N(C)[C@H](C(=O)N[C@H]2Cc3cccc(c3)-c3ccc4c(c3)c(c(-c3cccnc3[C@H](C)OC)n4CC)CC(C)(C)COC(=O)[C@@H]3CCCN(N3)C2=O)C(C)C)C1 (atropisomer, axis not shown) [Example A445] | 10 to 100 | < 5 | > 10000 | 1000 to 10000 | 1000 to 10000 | 100 to 1000 | < 10 | 10 to 100 | 1000 to 10000 | 1000 to 10000
